assay: gradient 5% acetonitrile 3 min, to 50% in 2 min, to 85% in 15 min, held 3 min, 100 µL/min; settings: column: Zorbax Extend-C18 2.1 x 50 mm; eluents: water / acetonitrile, 0.1% formic acid
In short: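 Values are retention times taken from adduct peaks that software picked and an analyst inspected. The pure standards were run as mixtures of ~100 molecules on HPLC linked to a quadrupole time-of-flight mass spectrometer, in positive and negative ionization mode. A Zorbax Extend-C18 column (2.1 × 50 mm, 1.8 μm) was used at 100 μL/min with water and acetonitrile, each including 0.1% formic acid.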

Structure (SMILES) | RP-LC retention time [s]
O=C1Cc2cc(NC(=O)NC(c3ccccc3)c3ccccc3)ccc2N1 | 706
CCC(C)n1c(=O)c2ccccc2n(Cc2nc(-c3ccccc3)no2)c1=O (stereo unspecified) | 1190
COc1ccc(Cl)cc1NC(=O)C(=O)c1cccn1C | 1140
CCc1nn2c(CNS(=O)(=O)c3ccc(C)cc3)c(-c3ccccc3)nc2s1 | 973
CSc1ccccc1C(=O)N(CCN(C)C)c1nc2ccc([N+](=O)[O-])cc2s1 | 615
CCN(Cc1ccccc1)C(=O)c1noc2c1CCCC2 | 1010
Cc1ccc(C)c(S(=O)(=O)N2CCC(n3cnnc3C(C)C)CC2)c1 | 768
Cc1nn(C)c(=O)c2cc(S(=O)(=O)NCCC3=CCCCC3)cn12 | 966
CC(C)NC(=O)c1cc(N(C)C)nc2ccccc12 | 587
Cc1ccc(S(=O)(=O)N2C[C@@H](F)C[C@H]2C(=O)N2CCOCC2)c(C)c1 | 740
C#CCn1cnc2c(oc3ccccc32)c1=O | 673
CN1CCN(c2ccc(CNC(=O)CN3CCN(Cc4ccc(F)cc4)C3=O)cc2)CC1 | 599
CC1(C)Cc2cccc(OCC(=O)Nc3ncc([N+](=O)[O-])s3)c2O1 | 906
O=C(C1COc2ccccc2O1)N1CC(n2ccnc2)C1 (stereo unspecified) | 594
Cc1ccc(NC(=O)Cc2c(C)nn(-c3nc(-c4ccc(F)cc4)cs3)c2C)c(C)c1 | 1210
CCc1nnc(NC(=O)CN2C(=O)C3CCCCN3c3ccc(C(=O)N(C)C)cc32)s1 (stereo unspecified) | 700
Cc1ccc(C)c(N2CC(c3nc(-c4ccc5c(c4)OCO5)no3)CC2=O)c1 (stereo unspecified) | 998
CCCc1cc(C2CCCN2C(=O)Nc2ccccc2C)no1 (stereo unspecified) | 902
O=[N+]([O-])c1ccccc1S(=O)(=O)N1CCc2ccccc21 | 893
O=c1c2sccc2n(Cc2nc(-c3ccc(C(F)(F)F)cc3)no2)c(=O)n1Cc1ccccc1 | 1200
O=S(=O)(c1ccccc1Cl)N1CCN(c2ccc(Nc3ccccn3)nn2)CC1 | 593
CN1CCN(C(=O)C2CCN(c3nc4ccc(-c5ccccc5)nc4s3)CC2)CC1 | 672

Structure (SMILES) | RP-LC retention time [s]
O=C(NC1CCCCC1)C1CC(=O)N(c2ccc3c(c2)CCN3C(=O)C2CCC2)C1 (stereo unspecified) | 824
O=C1/C(=C/c2ccsc2)CC/C1=C\c1cccs1 | 1280
CC(C)c1ccc(S(=O)(=O)c2cnc(N3CCC(C(N)=O)(N4CCCCC4)CC3)nc2N)cc1 | 677
CCCNC(=O)N1CCC(c2noc(-c3ccccc3)n2)C1 (stereo unspecified) | 763
COc1ccc(-c2noc(N3CCC(C(=O)Nc4cc(C)on4)CC3)n2)cc1OC | 784
CC(C)c1ccc(N2C(=O)C3N=NN(Cc4nc(-c5cccc(Br)c5)no4)C3C2=O)cc1 (stereo unspecified) | 1170
O=C(Cc1csc2nc(-c3cccc(Br)c3)cn12)NCc1ccc2c(c1)OCO2 | 869
O=C(NCc1ccco1)C1CCN(c2nc3ccc(-c4cccnc4)nc3s2)CC1 | 644
O=C(Nc1ccc2c(c1)OCO2)C(=O)NC1CC1 | 677
O=C(Nc1ccccc1)c1ccc(=O)n(CCN2CCOCC2)c1 | 590
O=S(=O)(c1ccc(Cl)cc1)N1CCC(c2nc(-c3cccc(-c4ccn[nH]4)c3)no2)CC1 | 994
Cn1nccc1-c1cccc(-c2noc(C3CC(=O)N(c4cccc(Cl)c4)C3)n2)c1 (stereo unspecified) | 978
COc1ccc(N2C(=O)N[C@@H]3C[C@]2(C)Oc2ccc(C)cc23)cc1OC | 735
Cc1ccc(NC(=O)N2CCC(CCN)CC2)cc1F | 612
CC(C)n1c(N2CCN(C(=O)c3c(F)cccc3F)CC2)cc(=O)n(C(C)C)c1=O | 814
CCOC(=O)Cc1csc(NC(=O)CSc2nc(C)nc3sc4c(c23)CCC4)n1 | 998
CCc1ccc(-n2ncc3c(=O)n(Cc4nc(-c5cc(OC)c(OC)c(OC)c5)no4)cnc32)cc1 | 1080
CC(C)c1ccc(OCC(=O)NCCS(=O)(=O)N2CCN(c3ncccn3)CC2)cc1 | 856
CC1CCN(S(=O)(=O)c2ccc(-c3nnc(C(=O)N4CCC5(CC4)OCCO5)o3)cc2)CC1 | 952
Cc1ccc(N2CCC(NC(=O)c3ccc(F)cc3)C2=O)cc1C (stereo unspecified) | 828
Cc1nc(-c2noc(-c3ccncc3)n2)cn1CC(=O)N1CCN(c2ccccc2)CC1 | 673

More lines, now with the values ahead:

RP-LC retention time [s] | Structure (SMILES)
828 | Cc1ccc(/C=C/c2onc(C)c2S(=O)(=O)N2CCC(C(=O)NCC3CCCO3)CC2)cc1 (stereo unspecified)
566 | CC(=O)c1cccc(NC(=O)N2CCN(c3nc4ccccc4n3C)CC2)c1
576 | Cc1noc([C@H]2CCN(C3CCSCC3)C[C@H]2NC(=O)C2CC2)n1
902 | COC(=O)c1ccccc1NC(=O)N1CCC(C(=O)NCc2csc(-c3ccccc3)n2)CC1
720 | O=C(Cn1cnc2nc3c(cc2c1=O)CCCC3)Nc1ccccc1Cl
995 | O=S(=O)(c1cccc(-c2nnc(-c3ccc(Cl)cc3)o2)c1)N1CCOCC1
599 | O=C(CN1CCN(Cc2cccc(Cl)c2)C1=O)NCc1ccncc1
656 | COCCOCc1nc(C2CCCN2C(=O)c2ccoc2)no1 (stereo unspecified)
942 | O=C(Nc1ccc(Cl)cc1)N1CCC(n2c(C(F)(F)F)nc3cccnc32)CC1
850 | O=C(N[C@H]1C[C@@H]2C[C@H]1N(C(=O)c1ccc(Cl)s1)C2)c1cccs1
1090 | CC(NC(=O)C1CCCN(C(=O)c2cc3sccc3n2C)C1)C12CC3CC(CC(C3)C1)C2 (stereo unspecified)
545 | O=C(Cc1ccccc1)NCCc1nc2ccccc2[nH]1
851 | Cc1ccc(Nc2nc(C)cc(N3CCN(S(=O)(=O)c4ccc(C(F)(F)F)cc4)CC3)n2)cc1
953 | CC1(C(=O)NCc2ccc(Cl)cc2)CN(S(C)(=O)=O)CC(=O)N1CCCc1ccccc1 (stereo unspecified)
607 | O=C(NCC1CCS(=O)(=O)C1)c1cc(-c2cccs2)[nH]n1 (stereo unspecified)
928 | Cc1cc(C)cc(S(=O)(=O)Nc2ccc3c(c2)CCC(=O)N3CC(C)C)c1
747 | CC(C)CC(=O)N1CCc2c(c(C(=O)N3CCCC(C(=O)Nc4ccccc4)C3)nn2C)C1 (stereo unspecified)
655 | CC(C)(C)NC(=O)N1CCC(CNC(=O)c2cccs2)CC1
939 | Cc1ccc(C2=NC3(CCN(C(=O)c4ccc5c(c4)OCO5)CC3)ON2)cc1
789 | COc1ccccc1-c1cc(C(=O)N2CCN(c3ccc(=O)n(-c4ccc(F)cc4)n3)CC2)[nH]n1
1200 | Cc1cc(Cl)ccc1OCc1nc(-c2cccc(-c3ccnn3C)c2)no1
580 | O=C(c1ccncn1)N1CC(n2cnnc2C2CCCO2)C1 (stereo unspecified)
1020 | CCCc1ccc(S(=O)(=O)Nc2ccc3nc(S(=O)(=O)CC)sc3c2)cc1

— the METLIN SMRT retention time set (Domingo-Almenara et al. 2019)
